Starred links: 1 amine or outer side, 2 acyl side, 3 side chain; linkers in the order of their positions; H or OH if unused. Positions of bridges follow the written chain, without caps; N, C: chain ends. Non-standard residues stand in square brackets, D forms with d. Residues, ends and D or L forms follow the SMILES beside them. Groups on a side chain read outwards from the residue. *: point of attachment. Trp(1-CH2COOH) = N[C@@H](Cc1cn(CC(=O)O)c2ccccc12)C(=O)O; X14 = O=C(O)CCCCCCCCCCNC(=O)CCC(=O)NCCCOCCOCCOCCCN*; X10 = O=C(O)CCCCCCCCCCCCCCC(=O)N[C@@H](CN*)C(=O)O; X24 = O=C(C[C@@H](Cc1ccc(O)cc1)C(=O)[*:1])C[*:2]; C18 diacid = O=C(O)CCCCCCCCCCCCCCCCC(=O)*; NH(CH2)16COOH = O=C(O)CCCCCCCCCCCCCCCCN*; Phe(4-F) = N[C@@H](Cc1ccc(F)cc1)C(=O)O; γGlu = O=C(O)[C@H](CCC(=O)[*:2])N[*:1]; d(cisHyp) = O=C(O)[C@H]1C[C@@H](O)CN1; Ethylenediamine = C(CN[*:2])N[*:1]; PEG6 = NCCOCCOCCOCCOCCOCCOCCC(=O)O; Hyp = O=C(O)[C@@H]1C[C@@H](O)CN1; NHhexadecyl = CCCCCCCCCCCCCCCCN*; NMeF = CN[C@@H](Cc1ccccc1)C(=O)O; NMeE = CN[C@@H](CCC(=O)O)C(=O)O; Undecanoyl = CCCCCCCCCCC(=O)*; NMeNle = CCCC[C@H](NC)C(=O)O; Pip = O=C(O)[C@@H]1CCCCN1; NMeA = CN[C@@H](C)C(=O)O; Pra = C#CC[C@H](N)C(=O)O; Dab = NCC[C@H](N)C(=O)O; Dap = NC[C@H](N)C(=O)O; Sar = CNCC(=O)O
Biological target: T1, PD-L1 (Homo sapiens, UniProt Q9NZQ7)
T1 construct: hPDL1(19-239)-TVMV-His; made in house; host or cells: HEK293T
T1 sequence (Q9NZQ7 with tags, fused parts or gaps): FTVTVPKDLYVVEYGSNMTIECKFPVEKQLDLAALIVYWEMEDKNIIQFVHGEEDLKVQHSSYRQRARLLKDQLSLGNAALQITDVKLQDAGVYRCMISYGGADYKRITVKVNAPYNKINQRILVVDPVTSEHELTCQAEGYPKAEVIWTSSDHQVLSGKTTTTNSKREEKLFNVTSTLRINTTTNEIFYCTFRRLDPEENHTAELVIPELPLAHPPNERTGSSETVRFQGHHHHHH
Assay: PD-1/PD-L1 Homogenous Time-Resolved Fluorescence (HTRF) binding assay (PD-1-Ig/PD-L1-His)
Settings: inhibition of PD-1-Ig binding to PD-L1-TVMV-His; value given as number; read-out: HTRF IC50
Method in brief: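 HTRF competition in dPBS with 0.1% BSA and 0.05% Tween-20: 20 nM PD-1-Ig added after 15 min compound pre-incubation with 10 nM PD-L1-His, then another 15 min. Signal (665/620 nm) after 30 min with APC anti-His (20 nM) and Eu anti-Ig (1 nM).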

IC50 | Structure (SMILES)
14 nM | CCCC[C@H]1C(=O)N(C)[C@@H](CCCC)C(=O)N[C@@H](CC(C)C)C(=O)N[C@H](C(=O)NCC(=O)N[C@@H](Cc2cn(CCOCCOCCOCCOCCOCCOCCOCCOCCOCCOCCOCCNC(=O)C[C@H](NC(=O)CCCCCCCCCCCCCCCCC(=O)O)C(=O)O)nn2)C(=O)O)CSCC(=O)N[C@@H](Cc2ccc(O)cc2)C(=O)N(C)[C@@H](C)C(=O)N[C@@H](CC(N)=O)C(=O)N2CCC[C@H]2C(=O)N[C@@H](CN)C(=O)N[C@@H](CC(C)C)C(=O)N2C[C@H](O)C[C@H]2C(=O)N[C@@H](Cc2c[nH]c3ccccc23)C(=O)N[C@@H](CCN)C(=O)N[C@@H](Cc2cn(CC(=O)O)c3ccccc23)C(=O)N1C [Example 14103]

Same assay, conditions: inhibition of PD-1-Ig binding to PD-L1-TVMV-His; value given as range class; read-out: HTRF IC50

Structure (SMILES) | IC50
CCCC[C@H]1C(=O)N(C)[C@@H](CCCC)C(=O)N[C@@H](CC(C)C)C(=O)N[C@H](C(=O)NCC(=O)N[C@@H](CCC(=O)NCCNC(=O)CC[C@H](NC(=O)CCCCCCCCCCCCCCCCC(=O)O)C(=O)O)C(=O)O)CSCC(=O)N[C@@H](Cc2ccc(F)cc2)C(=O)N2CCCC[C@H]2C(=O)N[C@@H](CC(=O)O)C(=O)N2CCC[C@H]2C(=O)N[C@@H](CN)C(=O)N[C@@H](CC(C)C)C(=O)N2C[C@H](O)C[C@H]2C(=O)N[C@@H](Cc2c[nH]c3ccccc23)C(=O)N[C@@H](CCN)C(=O)N[C@@H](Cc2cn(CC(=O)O)c3ccccc23)C(=O)N1C [Example 14123] ({CH2CO}-[Phe(4-F)][Pip]DP[Dap]L[Hyp]W[Dab][Trp(1-CH2COOH)][NMeNle][NMeNle]LCGE([Ethylenediamine-γGlu-C18 diacid])-OH; thioether N-14) | 0.3 to 9.9 nM
CCCCCCCCCCCCCCCCNC(=O)[C@H](CC(=O)O)NC(=O)CNC(=O)CNC(=O)CNC(=O)[C@@H]1CSCC(=O)N[C@@H](Cc2ccc(O)cc2)C(=O)N(C)[C@@H](C)C(=O)N[C@@H](CC(=O)O)C(=O)N2CCC[C@H]2C(=O)N[C@@H](Cc2cnc[nH]2)C(=O)N[C@@H](CC(C)C)C(=O)N2C[C@H](O)C[C@H]2C(=O)N[C@@H](Cc2c[nH]c3ccccc23)C(=O)N[C@@H](CO)C(=O)N[C@@H](Cc2c[nH]c3ccccc23)C(=O)N(C)[C@@H](CCCC)C(=O)N(C)[C@@H](CCCC)C(=O)N[C@@H](CCCNC(=N)N)C(=O)N1 [Example 11120] ({CH2CO}-Y[NMeA]DPHL[Hyp]WSW[NMeNle][NMeNle]RCGGGD-NHhexadecyl; thioether N-14) | 100 to 1600 nM
CCCC[C@H]1C(=O)N(C)[C@@H](CCCC)C(=O)N[C@@H](CC(C)C)C(=O)N[C@H](C(=O)NCC(=O)N[C@@H](CCC(=O)NCCOCCOCCOCCOCCOCCOCCC(=O)NC[C@H](NC(=O)CCCCCCCCCCCCCCC(=O)O)C(=O)O)C(=O)O)CSCC(=O)N[C@@H](Cc2ccc(O)cc2)C(=O)N(C)[C@@H](C)C(=O)N[C@@H](CC(N)=O)C(=O)N2CCC[C@H]2C(=O)N[C@@H](CN)C(=O)N[C@@H](CC(C)C)C(=O)N2C[C@H](O)C[C@@H]2C(=O)N[C@@H](Cc2c[nH]c3ccccc23)C(=O)N[C@@H](CCN)C(=O)N[C@@H](Cc2cn(CC(=O)O)c3ccccc23)C(=O)N1C [Example 11165] ({CH2CO}-Y[NMeA]NP[Dap]L[d(cisHyp)]W[Dab][Trp(1-CH2COOH)][NMeNle][NMeNle]LCG[γGlu][PEG6]-X10; thioether N-14) | 0.3 to 9.9 nM
CCCC[C@H]1C(=O)N(C)CC(=O)N[C@@H](CC(=O)O)C(=O)N[C@@H](C(C)C)C(=O)N(C)[C@@H](Cc2ccccc2)C(=O)N[C@@H](Cc2ccc(O)cc2)C(=O)N(C)[C@@H](CCC(=O)O)C(=O)N[C@@H](Cc2c[nH]c3ccccc23)C(=O)N[C@@H](Cc2ccc(O)cc2)C(=O)N[C@@H](CC(C)C)C(=O)N[C@H](C(=O)NCC(=O)NCC(=O)NCC(=O)N[C@@H](CCCCN)C(N)=O)CSCC(=O)N[C@@H](Cc2ccccc2)C(=O)N(C)[C@@H](Cc2ccccc2)C(=O)N1C [Example 3619] ({CH2CO}-F[NMeF][NMeNle][Sar]DV[NMeF]Y[NMeE]WYLCGGGK-NH2; thioether N-13) | 0.3 to 9.9 nM
CCCC[C@H]1C(=O)N(C)[C@@H](CCCC)C(=O)N[C@@H](CCC(=O)O)C(=O)N[C@H](C(=O)NCCCOCCOCCOCCCNC(=O)CCC(=O)NCCCCCCCCCCC(=O)O)CSCC(=O)N[C@@H](Cc2ccc(O)cc2)C(=O)N(C)[C@@H](C)C(=O)N[C@@H](CC(=O)O)C(=O)N2CCC[C@H]2C(=O)N[C@@H](CN)C(=O)N[C@@H](CC(C)C)C(=O)N2C[C@H](O)C[C@@H]2C(=O)N[C@@H](Cc2c[nH]c3ccccc23)C(=O)N[C@@H](CCN)C(=O)N[C@@H](Cc2cn(CC(=O)O)c3ccccc23)C(=O)N1C [Example 11145] ({CH2CO}-Y[NMeA]DP[Dap]L[d(cisHyp)]W[Dab][Trp(1-CH2COOH)][NMeNle][NMeNle]EC-X14; thioether N-14) | 0.3 to 9.9 nM
CCCCCCCCCCCCCCCCNC(=O)CNC(=O)CNC(=O)[C@@H]1CSCC(=O)N[C@@H](Cc2ccc(O)cc2)C(=O)N(C)[C@@H](C)C(=O)N[C@@H](CC(N)=O)C(=O)N2CCC[C@H]2C(=O)N[C@@H](CCN)C(=O)N[C@@H](CC(C)C)C(=O)N2C[C@H](O)C[C@H]2C(=O)N[C@@H](Cc2c[nH]c3ccccc23)C(=O)N[C@@H](CO)C(=O)N[C@@H](Cc2c[nH]c3ccccc23)C(=O)N(C)[C@@H](CCCC)C(=O)N(C)[C@@H](CCCC)C(=O)N[C@@H](CCCNC(=N)N)C(=O)N1 [Example 11104] ({CH2CO}-Y[NMeA]NP[Dab]L[Hyp]WSW[NMeNle][NMeNle]RCGG-NHhexadecyl; thioether N-14) | 100 to 1600 nM
CCCCCCCCCCC(=O)NCCCC[C@H](NC(=O)CCOCCOCCOCCOCCOCCOCCNC(=O)[C@@H]1CSCC(=O)C[C@@H](Cc2ccc(O)cc2)C(=O)N(C)[C@@H](C)C(=O)N[C@@H](CC(N)=O)C(=O)N2CCC[C@H]2C(=O)N[C@@H](Cc2cnc[nH]2)C(=O)N[C@@H](CCC(=O)O)C(=O)N2C[C@H](O)C[C@H]2C(=O)N[C@@H](Cc2c[nH]c3ccccc23)C(=O)N[C@@H](CCN)C(=O)N[C@@H](Cc2cn(CC(=O)O)c3ccccc23)C(=O)N(C)[C@@H](CCCC)C(=O)N(C)[C@@H](CCCC)C(=O)N[C@@H](CC(C)C)C(=O)N1)C(N)=O [Example 11012] ([NMeA]NPHE[Hyp]W[Dab][Trp(1-CH2COOH)][NMeNle][NMeNle]LC[PEG6]K(Undecanoyl)-NH2; linker N-13 via X24) | 10 to 99 nM

Further lines, results first:

IC50 | Structure (SMILES)
0.3 to 9.9 nM | C#CC[C@H](NC(=O)[C@@H]1CSCC(=O)N[C@@H](Cc2ccc(O)cc2)C(=O)N(C)[C@@H](C)C(=O)N[C@@H](CC(N)=O)C(=O)N2CCC[C@H]2C(=O)N[C@@H](CN)C(=O)N[C@@H](CC(C)C)C(=O)N2C[C@H](O)C[C@H]2C(=O)N[C@@H](Cc2c[nH]c3ccccc23)C(=O)N[C@@H](CCN)C(=O)N[C@@H](Cc2cn(CC(=O)O)c3ccccc23)C(=O)N(C)[C@@H](CCCC)C(=O)N(C)[C@@H](CCCC)C(=O)N[C@@H](CC(C)C)C(=O)N1)C(=O)O [INT130AF] ({CH2CO}-Y[NMeA]NP[Dap]L[Hyp]W[Dab][Trp(1-CH2COOH)][NMeNle][NMeNle]LC[Pra]-OH; thioether N-14)
10 to 99 nM | CCCC[C@H]1C(=O)N(C)[C@@H](CCCC)C(=O)N[C@@H](CC(C)C)C(=O)N[C@H](C(=O)NCC(=O)N[C@H](CC(=O)O)C(=O)NCCCCCCCCCCCCCCCCC(=O)O)CSCC(=O)N[C@@H](Cc2ccc(O)cc2)C(=O)N(C)[C@@H](C)C(=O)N[C@@H](CC(N)=O)C(=O)N2CCC[C@H]2C(=O)N[C@@H](CN)C(=O)N[C@@H](CC(C)C)C(=O)N2C[C@H](O)C[C@H]2C(=O)N[C@@H](Cc2c[nH]c3ccccc23)C(=O)N[C@@H](CCN)C(=O)N[C@@H](Cc2cn(CC(=O)O)c3ccccc23)C(=O)N1C [Example 11190] ({CH2CO}-Y[NMeA]NP[Dap]L[Hyp]W[Dab][Trp(1-CH2COOH)][NMeNle][NMeNle]LCG[dD]-{NH(CH2)16COOH}; thioether N-14)

Reference: patent US10633419B2, “Immunomodulators” (BRISTOL-MYERS SQUIBB COMPANY, priority 2014, dated 2020)
